Data taken from patent US11484029B2, “Method for controlling building-inhabiting pest and composition for controlling building-inhabiting pest” (priority 2017, dated 2022).

Columns and labels:
Denken German cockroach = test: Forced contact with treated glass disc; assay type: in vivo, Blattella germanica; settings: forcibly brought into contact with glass disc treated at 0.3 μg/cm^2, within 48 hours
Experimental: The Denken German cockroach had 100% knockdown within 48 hours when forcibly brought into contact with a glass disc that had been treated with the compound of Formula (2) and etofenprox so as to have a concentration of 0.3 μg/cm^2.

[1] = system: bed bug (Cimex lectularius); test: Drug efficacy test, topical application (50% lethal dose); assay type: in vivo; settings: for 50% lethal dose: female adult, topical application, mortality three days later
From the text: (§1) Test drug: a compound represented by Formula (2)
(§2) Test insect: Watarida colony (susceptible strain) of German cockroach (Blattella germanica); Hamamatsu-cho colony (resistant strain) of German cockroach (Blattella germanica); Teikyo University colony (susceptible strain) of bed bug (Cimex lectularius); and Chiba colony (resistant strain) of bed bug (Cimex lectularius),
(§3) Insecticidal test: An acetone solution of a compound represented by Formula (2) was applied to the chest of a target insect female adult by using a topical application device. The mortality was examined six days later for the German cockroach and three days later for the bed bug, and each 50% lethal dose was determined. Further, the resistance ratio was calculated by the following equation. Resistance ratio=50% lethal dose of resistant strain/50% lethal dose of susceptible strain

[2] = system: German cockroach (Blattella germanica); test: as above; assay type: in vivo; settings: for 50% lethal dose: female adult, topical application, mortality six days later
From the text: as §1, §2, §3

[3] = system: Watarida colony (susceptible strain) of German cockroach (Blattella germanica); test: Heat volatilization test; assay type: in vivo; settings: 1 g of sample heated at 300° C., after 15 hours
Experimental: Sample: a compound represented by Formula (2)
Test insect: Watarida colony (susceptible strain) of German cockroach (Blattella germanica)
After 15 hours, examination of life or death was performed on the tested cockroaches, and the fatality rate was calculated.

[4] = system: Denken colony (susceptible strain) of German cockroach (Blattella germanica); test: Repellency test (treated vs non-treated shelter); assay type: in vivo; settings: 0.3 μg/cm^2, after 7 days
Experimental: Sample: a compound represented by Formula (2), and etofenprox (control agent)
Test insect: Denken colony (susceptible strain) of German cockroach (Blattella germanica)
Test method: A test compound diluted with acetone was treated and dried on a glass disc having a diameter of 12 cm so as to be 0.3 μg/cm^2. A pet cup having 6 cm in inner diameter×0.5 cm in height was cut so as to have an entrance, and the pet cup was turned over and placed on the glass disc to make a shelter. A non-treated shelter and a drug-treated shelter were placed in the center of an acrylic box having 30 cm×15 cm, well water and rat feed were added as food, and 15 males and 15 females of German cockroach were released. After 7 days, the number of surviving insects, the number of dead insects, the number of agonizing insects, and the habitat were examined. Further, a KD (knockdown) rate and a repellency rate were calculated by the following equations. KD rate (%)=(the number of dead insects+the number of agonizing insects)/the number of released insects×100 Repellency rate (%)=(1−the number of cockroaches in treated area/(the number of cockroaches in treated area+the number of cockroaches in non-treated area)×100

Compound | knockdown (Denken German cockroach) [%] | repellent effect (conclusion in words) [4] | Non-treated shelter Number of agonizing insects ([4]; Total (30 released)) | Non-treated shelter Number of dead insects ([4]; Total (30 released)) | Non-treated shelter Number of surviving insects ([4]; Total (30 released)) | Outside the area Number of agonizing insects ([4]; Total (30 released)) | Outside the area Number of dead insects ([4]; Total (30 released)) | Outside the area Number of surviving insects ([4]; Total (30 released)) | Treated shelter Number of agonizing insects ([4]; Total (30 released)) | Treated shelter Number of dead insects ([4]; Total (30 released)) | Treated shelter Number of surviving insects ([4]; Total (30 released)) | KD rate ([4]; Total) [%] | Non-treated shelter Number of agonizing insects ([4]; female (15 released)) | Non-treated shelter Number of dead insects ([4]; female (15 released)) | Non-treated shelter Number of surviving insects ([4]; female (15 released)) | Outside the area Number of agonizing insects ([4]; female (15 released)) | Outside the area Number of dead insects ([4]; female (15 released)) | Outside the area Number of surviving insects ([4]; female (15 released)) | Treated shelter Number of agonizing insects ([4]; female (15 released)) | Treated shelter Number of dead insects ([4]; female (15 released)) | also measured
CN(C(=O)c1ccccc1)c1cccc(C(=O)Nc2c(Br)cc(C(F)(C(F)(F)F)C(F)(F)F)cc2C(F)(F)F)c1F [Compound represented by Formula (2), 2-fluoro-3-(N-methylbenzamide)-N-(2-bromo-6-trifluoromethyl-4-(heptafluoropropane-2-yl)phenyl)benzamide] | 100 | has no repellent effect | 0 | 0 | 0 | 3 | 27 | 0 | 0 | 0 | 0 | 100 | 0 | 0 | 0 | 2 | 13 | 0 | 0 | 0 | Resistance ratio ([1]; 50% lethal dose of resistant strain (Chiba)/susceptible strain (Teikyo University)): 11.4; 50% lethal dose ([1]; Chiba colony (resistant strain)): 14.8 ng/insect; 50% lethal dose ([1]; Teikyo University colony (susceptible strain)): 1.3 ng/insect; Resistance ratio ([2]; 50% lethal dose of resistant strain (Hamamatsu-cho)/susceptible strain (Watarida)): 1.9; 50% lethal dose ([2]; Hamamatsu-cho colony (resistant strain)): 21.5 ng/insect; 50% lethal dose ([2]; Watarida colony (susceptible strain)): 11.2 ng/insect; fatality rate ([3]; inside the slit box): 100%; fatality rate ([3]; outside the slit box): 100%; Treated shelter Number of surviving insects ([4]; female (15 released)): 0; KD rate ([4]; female): 100%; Non-treated shelter Number of agonizing insects ([4]; male (15 released)): 0; Non-treated shelter Number of dead insects ([4]; male (15 released)): 0; Non-treated shelter Number of surviving insects ([4]; male (15 released)): 0; Outside the area Number of agonizing insects ([4]; male (15 released)): 1; Outside the area Number of dead insects ([4]; male (15 released)): 14; Outside the area Number of surviving insects ([4]; male (15 released)): 0; Treated shelter Number of agonizing insects ([4]; male (15 released)): 0; Treated shelter Number of dead insects ([4]; male (15 released)): 0; Treated shelter Number of surviving insects ([4]; male (15 released)): 0; KD rate ([4]; male): 100%
CCOc1ccc(C(C)(C)COCc2cccc(Oc3ccccc3)c2)cc1 [Etofenprox, etofenprox] | 100 | has a repellent effect | 0 | 0 | 29 | 0 | 1 | 0 | 0 | 0 | 0 | 3 | 0 | 0 | 15 | 0 | 0 | 0 | 0 | 0 | Resistance ratio ([1]; etofenprox to bed bugs, strains not stated): ≥ 10000; Repellency rate ([4]; Total): 100%; Treated shelter Number of surviving insects ([4]; female (15 released)): 0; KD rate ([4]; female): 0%; Repellency rate ([4]; female): 100%; Non-treated shelter Number of agonizing insects ([4]; male (15 released)): 0; Non-treated shelter Number of dead insects ([4]; male (15 released)): 0; Non-treated shelter Number of surviving insects ([4]; male (15 released)): 14; Outside the area Number of agonizing insects ([4]; male (15 released)): 0; Outside the area Number of dead insects ([4]; male (15 released)): 1; Outside the area Number of surviving insects ([4]; male (15 released)): 0; Treated shelter Number of agonizing insects ([4]; male (15 released)): 0; Treated shelter Number of dead insects ([4]; male (15 released)): 0; Treated shelter Number of surviving insects ([4]; male (15 released)): 0; KD rate ([4]; male): 7%; Repellency rate ([4]; male): 100%
